Results on two molecules are retold here after patent publication US20090143418A1, “Compositions and Methods for Preventing and Treating Hair Growth Cycle-Related Conditions” (THE REGENTS OF THE UNIVERSITY OF MICHIGAN, priority 2007, published 2009).

Values joined by “and” are separate entries in the source; they are usually repeats but may differ in a detail not shown here. Identical values can stand only once.

The subject of data set [1] is DCT-LacZ mice. Description: DCT-LacZ (X-gal) staining of skin, hair follicles containing melanocyte progenitors. To be noted: for percentage of hair follicles containing DCT-LacZ+ cells, Average: 11.2 grays irradiation, rapamycin 4 mg/kg/day i.p.; for percentage of hair follicles containing DCT-LacZ+ cells, individual mouse: individual animals (Mouse 1-4), 4 mg/kg/day i.p., 4 mg/kg/day. The format is in vivo, mouse. As to the method:
Mice: DCT-LacZ mice were backcrossed for 3 generations on a C57BL background.
Irradiation and Bone Marrow Transplant: Adult recipient mice were irradiated using a gamma cell irradiator. Mice received two doses of 560 rads each delivered 3 hours apart (FIGS. 1-4, FIG. 7, Table 1). Mice received 1,000,000 whole bone marrow cells isolated from a C57BL donor (FIGS. 1-4, FIG. 7, Table 1). Bone marrow cells were suspended in HBSS free with 2% Bovine Serum and injected via the retro orbital venous sinus. Where indicated, mice were sublethally irradiated with 650 rads and not subjected to bone marrow transplant (FIG. 6).
(§1) Rapamycin: Rapamycin (LC Laboratories) was administered by intraperitoneal injection. Rapamycin was reconstituted in ethanol (10 mg/ml or 1 mg/ml) and diluted into a solution of 5% Tween-80 (Sigma) and 5% PEG-400 (Hampton Research). The final volume injected was […]. Dosing and administration regimes were as indicated in Example II.
(§2) DCT-LacZ Staining A 2×2 cm patch of skin was harvested with dissecting scissors from euthanized DCT-LacZ mice. The skin patch was washed in phosphate buffer (0.5M Na2HPO4, 0.5M NaH2PO4, 2 mM MgC12, 0.02% NP-40, 0.01% sodium deoxycolate), and then fixed on ice in 0.2% glutaraldehyde in phosphate buffer for 30 minutes. While being fixed, the skin samples were microwaved in fixation solution on ice for 20 seconds. After fixation, the samples were washed and the adipose layer was removed by dissection. After another washing, the skin samples were stained in 1 mg/ml X-gal in phosphate buffer for 2.5 hours. After staining, samples were washed and roughly 1 mm wide sections were made manually using a razor blade. Sections were mounted in 70% glycerol.
To better understand the effects of rapamycin on melanocyte progenitors, transplantation experiments in mice bearing a DCT-LacZ transgene, which is expressed by melanocyte progenitors in hair follicles, were conducted (see, e.g., Mackenzie, M. A., et al., Dev Biol 192, 99-107 (1997); Nishimura, E. K., et al., Nature 416, 854-60 (2002); each herein incorporated by reference in their entireties). This transgene expresses the bacterial LacZ gene under the control of the melanocyte specific promoter for the gene dopachrome tautomerase. These mice were used as recipients in similar transplants where 1 million whole bone marrow cells were irradiated and transplanted. The mice were treated with 0.4 mg/kg of rapamycin every other day for the first two weeks and then with 4 mg/kg/day after that. These mice were sacrificed at regular intervals, and their skin harvested and stained with X-gal.
Animals were sacrificed at each time point and stained with X-gal. The percentage of hair follicles containing DCT-LacZ+ cells was quantified.

The subject of data set [2] is DCT-LacZ mice. The data set can be described thus: Hair cycle stage (anagen) in skin sections of irradiated, transplanted DCT-LacZ mice. The format is in vivo, mouse. The conditions noted are these: 2/18 rapamycin treated animals versus 56% (10/18) vehicle; P=0.0001. How it is done:
as §2
To better understand the effects of rapamycin on melanocyte progenitors, transplantation experiments in mice bearing a DCT-LacZ transgene, which is expressed by melanocyte progenitors in hair follicles, were conducted (see, e.g., Mackenzie, M. A., et al., Dev Biol 192, 99-107 (1997); Nishimura, E. K., et al., Nature 416, 854-60 (2002); each herein incorporated by reference in their entireties). This transgene expresses the bacterial LacZ gene under the control of the melanocyte specific promoter for the gene dopachrome tautomerase. […]

Data set [3] deals with wild-type nonirradiated mice. Description: Depilation-induced hair cycle, skin pigmentation onset. To be noted: 4 mg/kg starting the day after depilation. The format is in vivo, mouse. How it is done:
as §1
Depilation: Mice were anesthetized by intraperitoneal injection of 80 mg/kg of ketamine and 4 mg/kg of […] dissolved in HBSS. Final injection volume was 200 μl. The dorsal hair of the mice was then shaved with conventional clippers, and a commercial depilatory cream (Veet®) was applied liberally to an area of approximately 1.5×1.5 cm. After 5 minutes, the cream was washed off the mouse using warm water, and the mouse was gently dried using paper towels.
In analyzing the frequency of hair follicles that contained X-gal+ melanocytes, it became apparent that the hair follicles of rapamycin treated animals were less frequently in mature stages of the hair cycle (see FIG. 4). […] As such, a region of the lower back of wild-type nonirradiated mice was shaved and depilated. Depilation induced a new hair growth cycle, thereby permitting to test if in this context rapamycin could prevent the onset of or lengthen the duration of the hair cycle. […]

The next data set deals with hirsutism. To be noted: hirsutism patients; cited from earlier work.

For the molecule `CO[C@H]1C[C@@H]2CC[C@@H](C)[C@@](O)(O2)C(=O)C(=O)N2CCCC[C@H]2C(=O)O[C@H]([C@H](C)C[C@@H]2CC[C@@H](O)[C@H](OC)C2)CC(=O)[C@H](C)/C=C(\C)[C@@H](O)[C@@H](OC)C(=O)[C@H](C)C[C@H](C)/C=C/C=C/C=C/1C` [Rapamycin], the “percentage of hair follicles containing DCT-LacZ+ cells, Average” value in the data set on DCT-LacZ mice [1] (Week 8) came to 61.0%; in the data set with DCT-LacZ mice [1] (Week 10), 34.1%; in the data set on DCT-LacZ mice [1] (Week 12) it was 48.3%; in the data set on DCT-LacZ mice [1] (Week 14), 40.5%. Further, the “percentage of hair follicles containing DCT-LacZ+ cells, individual mouse” value was 77.0% and 45.0% in the data set on DCT-LacZ mice [1] (Week 8); 19.3% and 22.0% and 42.0% and 53.0% with DCT-LacZ mice [1] (Week 10); 54.0% and 39.0% and 52.0% with DCT-LacZ mice [1] (Week 12); 53.0% and 42.0% and 17.0% and 50.0% in the data set on DCT-LacZ mice [1] (Week 14). For the same molecule, the “animals with hairs in anagen” value in the data set on DCT-LacZ mice [2] was 11%. Moreover, the “days until pigmentation was visible in skin” value in data set [3] (n=5, vehicle 16.7 days, p=0.04) was 25.2 days. Besides, in data set [3] (on average), the “delay of change in skin color (progression through anagen) versus vehicle” value worked out at 8 days.
On to `NCCCC(N)(C(=O)O)C(F)F` (stereo not drawn) [Eflornithine], for which the side effects entry with hirsutism is given as “minor skin irritation, folliculitis, stinging, burning, tingling, acne, and/or rash”.
